Converted amounts (≈) assume the structure as drawn. Starred links: 1 amine or outer side, 2 acyl side, 3 side chain; linkers in the order of their positions; H or OH if unused. Positions of bridges follow the written chain, without caps; N, C: chain ends. Non-standard residues stand in square brackets, D forms with d. Residues, ends and D or L forms follow the SMILES beside them. X1 = CC[C@H](C)[C@@H](N[*:1])[C@@H](O)CC(=O)O[C@H](C(=O)[C@H](C)C(=O)[*:2])C(C)C; NMeY = CN[C@@H](Cc1ccc(O)cc1)C(=O)O; dNMeL = CN[C@H](CC(C)C)C(=O)O; pGlu = O=C1CC[C@@H](C(=O)O)N1; Lac = C[C@H](O)C(=O)O
Experiments:
[1] = Cytotoxicity of didemnins (Table II); format: cell-based; settings: for IC50: cytotoxicity
HSV = assay: Antiviral activities of didemnins, HSV/CV-1; format: cell-based; parameters: key: +++ = complete inhibition; ++ = strong inhibition; + = moderate inhibition; − = no inhibition
CV-1 = assay: Cytotoxicity score in the HSV/CV-1 antiviral assay; settings: scale 0 (least toxic) to 16 (toxic)
P388 Murine Leukemia = assay: Life extension vs. P388 murine leukemia in mice; format: in vivo

Row | Compound | Inhibition (%) ([1]; Dose 0.25 ng/mL) | Inhibition (%) ([1]; Dose 2.5 ng/mL) | Inhibition (%) ([1]; Dose 25 ng/mL) | Inhibition (%) ([1]; Dose 250 ng/mL) | IC50 [1] [ng/mL] | Activity (HSV; 10 ng/mL) | Cytotoxocity (CV-1; 10 ng/mL) | Cytotoxocity (CV-1; 20 ng/mL) | Cytotoxocity (CV-1; 50 ng/mL) | Cytotoxocity (CV-1; 100 ng/mL) | T/C (% of Control, Life Extension) (P388 Murine Leukemia; Dose 0.025 mg/kg) | T/C (% of Control, Life Extension) (P388 Murine Leukemia; Dose 0.05 mg/kg) | T/C (% of Control, Life Extension) (P388 Murine Leukemia; Dose 1 mg/kg) | Activity (HSV; 20 ng/mL) | Activity (HSV; 50 ng/mL) | Activity (HSV; 100 ng/mL)
1 | CC[C@H](C)[C@H]1NC(=O)[C@@H](NC(=O)[C@@H](CC(C)C)N(C)C(=O)[C@@H]2CCCN2C(=O)[C@H](C)OC(=O)[C@@H](N)CCC(N)=O)[C@@H](C)OC(=O)[C@H](Cc2ccc(OC)cc2)N(C)C(=O)[C@@H]2CCCN2C(=O)[C@H](CC(C)C)NC(=O)[C@@H](C)C(=O)[C@H](C(C)C)OC(=O)C[C@@H]1O [Gln-Didemnin B, Glutaminyl-didemnin B] (H-Q[Lac]P[dNMeL]T[X1]LP[NMeY](Me); ester 5-C) | 94 | 100 | 100 | 100 | 0.1 (≈ 0.0806 nM) | +++ | 0 | 16 | 16 | 16 | 152 % of Control | 171 % of Control | 185 % of Control |  |  | 
2 | CC[C@H](C)[C@H]1NC(=O)[C@@H](NC(=O)[C@@H](CC(C)C)N(C)C(=O)[C@@H]2CCCN2C(=O)C(C)O)[C@@H](C)OC(=O)[C@H](Cc2ccc(OC)cc2)N(C)C(=O)[C@@H]2CCCN2C(=O)[C@H](CC(C)C)NC(=O)[C@@H](C)C(=O)[C@H](C(C)C)OC(=O)C[C@@H]1O (stereo partly drawn) [Didemnin (B) (2), Didemnin B, reference compound] | 0 | 40 | 100 | 100 | 7 (≈ 6.29 nM) | + | 0 | 0 | 0 | 16 |  |  |  | +++ | +++ | 
3 | CC[C@H](C)[C@H]1NC(=O)[C@@H](NC(=O)[C@@H](CC(C)C)NC)[C@@H](C)OC(=O)[C@H](Cc2ccc(OC)cc2)N(C)C(=O)[C@@H]2CCCN2C(=O)[C@H](CC(C)C)NC(=O)[C@@H](C)C(=O)[C@H](C(C)C)OC(=O)C[C@@H]1O [Didemnin A (1), Didemnin A] (H-[dNMeL]T[X1]LP[NMeY](Me); ester 2-C) | 0 | 0 | 70 | 100 | 75 (≈ 79.5 nM) | − | 0 | 0 | 0 | 0 |  |  |  | + | + | +
4 | CC[C@H](C)[C@H]1NC(=O)[C@@H](NC(=O)[C@@H](CC(C)C)N(C)C(=O)[C@@H]2CCCN2C(=O)[C@H](C)OC(=O)[C@H](CCC(N)=O)NC(=O)OCc2ccccc2)[C@@H](C)OC(=O)[C@H](Cc2ccc(OC)cc2)N(C)C(=O)[C@@H]2CCCN2C(=O)[C@H](CC(C)C)NC(=O)[C@@H](C)C(=O)[C@H](C(C)C)OC(=O)C[C@@H]1OC(=O)[C@H](CCC(N)=O)NC(=O)OCc1ccccc1 [Cbz-Gln[Cbz-GlnIst^2]DB (162), di-(benzyloxycarbonyl)glutaminyl-didemnin B] | 0 | 0 | 87 | 99 | 50 (≈ 30.5 nM) | + | 0 | 0 | 0 | 0 |  |  |  | + | + | +++
5 | CC[C@H](C)[C@H]1NC(=O)[C@@H](NC(=O)[C@@H](CC(C)C)N(C)C(=O)[C@@H]2CCCN2C(=O)[C@H](C)OC(=O)[C@H](CCC(N)=O)NC(=O)[C@@H]2CCC(=O)N2)[C@@H](C)OC(=O)[C@H](Cc2ccc(OC)cc2)N(C)C(=O)[C@@H]2CCCN2C(=O)[C@H](CC(C)C)NC(=O)[C@@H](C)C(=O)[C@H](C(C)C)OC(=O)C[C@@H]1O [Didemnin M (5), L-Pyroglutaminyl-L-glutaminyl-didemnin B] ([pGlu]Q[Lac]P[dNMeL]T[X1]LP[NMeY](Me); ester 6-C) | 94 | 100 | 100 | 100 | 0.8 (≈ 0.592 nM) | + | 0 | 0 | 16 | 16 |  |  |  | +++ |  | 
6 | CC[C@H](C)[C@H]1NC(=O)[C@@H](NC(=O)[C@@H](CC(C)C)N(C)C(=O)[C@@H]2CCCN2C(=O)[C@H](C)OC(=O)[C@@H]2CCC(=O)N2C(=O)OCc2ccccc2)[C@@H](C)OC(=O)[C@H](Cc2ccc(OC)cc2)N(C)C(=O)[C@@H]2CCCN2C(=O)[C@H](CC(C)C)NC(=O)[C@@H](C)C(=O)[C@H](C(C)C)OC(=O)C[C@@H]1O [Cbz-pGlu-Didemnin B (145), N-Benzyloxycarbonyl-L-pyroglutaminyl-didemnin B] | 0 | 0 | 70 | 100 | 50 (≈ 36.8 nM) | − | 0 | 0 | 0 | 0 |  |  |  | + | + | +

— patent US6841530B2, “Semi-synthetic studies toward didemnin analogues” (The Board of Trustees of the University of Illinois, priority 1996, dated 2005)
